We go through 14 molecules from patent US12310975B2, “Modulators of BCL6 proteolysis and associated methods of use” (Arvinas Operations, Inc., priority 2019, dated 2025).

Broadly, the Dmax is the largest share of the target that was removed. A low value points to shallow degradation. Broadly, the IC50 is the point on the concentration scale where inhibition reaches its midpoint. One may read the EC50 as the midpoint of the concentration-response curve. A higher EC50 goes with a need for much substance.

Bounds are passed on as bounds.

For the first test, the target named is T1, BCL6 (Homo sapiens (Human), UniProt P41182). Kind of test: Immunofluorescence high content imaging of BCL6 degradation in T47D cells. Format: cell-based. The settings on record: T47D. Summed up: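 Seed T47D in RPMI1640-10% FBS to reach ~70-90% confluence at endpoint; add degrader next day (11-point 3-fold series, top 0.1 or 1 μM final) for 3 days. Then fix, permeabilize, stain BCL6 with nuclear Hoechst, and image.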
`CNC(=O)COc1cc2cc(Nc3nc(N4CCC(OC5CC6(CCN(c7cccc(C(=O)NC8CCC(=O)NC8=O)c7OC)CC6)C5)CC4)ncc3Cl)ccc2n(C(C)C)c1=O` (stereo not shown) [compound 449, 3-[2-({1-[5-chloro-4-({3-[(methylcarbamoyl)methoxy]-2-oxo-1-(propan-2-yl)-1,2-dihydroquinolin-6-yl}amino)pyrimidin-2-yl]piperidin-4-yl}oxy)-7-azaspiro[3.5]nonan-7-yl]-N-(2,6-dioxopiperidin-3-yl)-2-methoxybenzamide] showed a maximal degradation (Dmax) of 50 to 70%.
Same read-out and setting: the result for `CNC(=O)COc1cc2cc(Nc3nc(N4CCN(C(C)(C)C5CCN(c6ccc(OC)c(C(=O)NC7CCC(=O)NC7=O)c6F)CC5)CC4)ncc3Cl)ccc2n(C)c1=O` (stereo not shown) [compound 468, 3-[4-(2-{4-[5-chloro-4-({1-methyl-3-[(methylcarbamoyl)methoxy]-2-oxo-1,2-dihydroquinolin-6-yl}amino)pyrimidin-2-yl]piperazin-1-yl}propan-2-yl)piperidin-1-yl]-N-(2,6-dioxopiperidin-3-yl)-2-fluoro-6-methoxybenzamide] reads at least 70%; that for `CNC(=O)COc1cc2cc(Nc3nc(N4CCC(C5(N6CCC(c7ccc8c(c7)C(=O)N(C7CCC(=O)NC7=O)C8=O)CC6)CC5)CC4)ncc3Cl)ccc2n(C)c1=O` (stereo not shown) [compound 482, 2-{[6-({5-chloro-2-[4-(1-{4-[2-(2,6-dioxopiperidin-3-yl)-1,3-dioxo-2,3-dihydro-1H-isoindol-5-yl]piperidin-1-yl}cyclopropyl)piperidin-1-yl]pyrimidin-4-yl}amino)-1-methyl-2-oxo-1,2-dihydroquinolin-3-yl]oxy}-N-methylacetamide], 50 to 70%.

Staying with this test, now noted: T47D cells.
The molecule `CNC(=O)COc1cc2cc(Nc3nc(N4CCC(CN5CC6(CCN(c7cccc(C(=O)NC8CCC(=O)NC8=O)c7OC)CC6)C5)CC4)ncc3Cl)ccc2n(C(C)C)c1=O` (stereo not shown) [compound 441, 3-[2-({1-[5-chloro-4-({3-[(methylcarbamoyl)methoxy]-2-oxo-1-(propan-2-yl)-1,2-dihydroquinolin-6-yl}amino)pyrimidin-2-yl]piperidin-4-yl}methyl)-2,7-diazaspiro[3.5]nonan-7-yl]-N-(2,6-dioxopiperidin-3-yl)-2-methoxybenzamide] showed a concentration for half-maximal inhibition (IC50) of at least 100 nM.
With `CNC(=O)COc1cc2cc(Nc3nc(N4CCC(CN5CCC6(CC5)CN(c5cccc7c5CN(C5CCC(=O)NC5=O)C7=O)C6)CC4)ncc3Cl)ccc2n(C(C)C)c1=O` (stereo not shown) [compound 442, 2-{[6-({5-chloro-2-[4-({2-[2-(2,6-dioxopiperidin-3-yl)-1-oxo-2,3-dihydro-1H-isoindol-4-yl]-2,7-diazaspiro[3.5]nonan-7-yl}methyl)piperidin-1-yl]pyrimidin-4-yl}amino)-2-oxo-1-(propan-2-yl)-1,2-dihydroquinolin-3-yl]oxy}-N-methylacetamide], the Dmax is at least 70% and the half-inhibitory concentration (IC50) was below 10 nM.
On the same counts, the results for `CNC(=O)COc1cc2cc(Nc3nc(N4CCC5(CC4)CN(CC4CCN(c6cccc7c6CN(C6CCC(=O)NC6=O)C7=O)CC4)C5)ncc3Cl)ccc2n(C(C)C)c1=O` (stereo not shown) [compound 443, 2-{[6-({5-chloro-2-[2-({1-[2-(2,6-dioxopiperidin-3-yl)-1-oxo-2,3-dihydro-1H-isoindol-4-yl]piperidin-4-yl}methyl)-2,7-diazaspiro[3.5]nonan-7-yl]pyrimidin-4-yl}amino)-2-oxo-1-(propan-2-yl)-1,2-dihydroquinolin-3-yl]oxy}-N-methylacetamide] are 50 to 70% and below 10 nM.

The target of a further test is T1, BCL6. Kind of test: BCL6 TR-FRET assay (BCL6-Avitag-Biotin / BCoR-Cy5 peptide). The test is classed as binding.
Details: not given
The protocol:
Protein Synthesis. BCL6 protein was expressed by transforming Invitrogen One Shot cells with GS63525 pET24a-His-SUMO-TEV-BCLm-Avitag plasmid following manufacturer's instructions. In addition, biotin at a final concentration of 50 μM, and IPTG at a final concentration of 1 mM was added to the culture and incubated at room temperature shaking overnight.
Assay buffer A: 50 mM HEPES pH 7.5, 125 mM NaCl, 0.01% TritonX.
Assay buffer B (made fresh): buffer A+1 mM Glutathione (or 0.5 mM DTT).
Assay buffer C (made fresh): buffer B+0.03% BSA.
Black Proxy plates, 96 well.
15 μl final reaction volumes (BCoR-Cy5 100 nM, SA-Eu 2 nM, BCL6-avitag 2 nM).
[…] BCL6-Avitag-Biotin stock: made fresh by adding 2 μl of BCL6-Avitag-Biotin to 31.5 ml Buffer C.
1 mM BCoR-Cy5 peptide (LifeTein) stock in Dimethylformamide (DMF).
300 nM BCoR-Cy5 working stock: made fresh by adding 4.5 μl of the 1 mM BCoR-Cy5 peptide stock to 15 ml Buffer B.
10 μM Eu-Streptavidin (Lance Eu-W1024 Streptavidin, PerkinElmer) stock solution.
6 nM Eu-Streptavidin working stock: made fresh by adding 9 μl Eu-Streptavidin stock solution to 15 ml Buffer A.
Compounds were diluted to 10 mM. Twenty microliters of DMSO was aliquoted to each well of the microtiter plates. From the 10 mM compound stock, 8.7 ul was aliquoted to the 20 ul DMSO and 3-fold serial dilutions (12 pt 3-0.01 uM tritration plate, 96 well, 100% DMSO) performed. Five ul from the titration plate wells was aliquoted to 45 ul Buff C (Intermediate dilution plates, 10% DMSO).
Spot 1.5 μl compound titrations to 384-well plates in duplicate, and spot 3.5 μl [8.5 nM] BCL6-bio protein to each well. The plate was mix briefly, centrifuged, and incubated for 30 minutes at room temperature.
Mix 14 mls of BCoR-Cy5 [300 nM] and 14 mls [6 nM] Eu-Streptavidin. Spot 10 μl BCoR-Cy5/SA-Eu (1:1) mix to each well. The plates were incubated for 2 hours and then read on an Envision plate reader.
Background: TR-FRET usually uses a lanthanide donor and a delayed reading to cut background.
The molecule `CNC(=O)COc1cc2cc(Nc3nc(N4CCC[C@H](COc5cccc6c5C(=O)N(C5CCC(=O)NC5=O)C6=O)C4)ncc3Cl)ccc2n(C)c1=O` (stereo partly drawn) [compound 192, 2-((6-((5-chloro-2-((3S)-3-(((2-(2,6-dioxopiperidin-3-yl)-1,3-dioxoisoindolin-4-yl)oxy)methyl)piperidin-1-yl)pyrimidin-4-yl)amino)-1-methyl-2-oxo-1,2-dihydroquinolin-3-yl)oxy)-N-methylacetamide] came in with an EC50 above 100 nM.
Still for that read-out and setting: the result for `Cn1c(=O)c(OC2COC2)cc2cc(Nc3nc(N4CCC(CN5CCN(c6ccc7c(c6)C(=O)N(C6CCC(=O)NC6=O)C7=O)CC5)CC4)ncc3Cl)ccc21` (stereo not shown) [compound 223, 5-(4-((1-(5-chloro-4-((1-methyl-3-(oxetan-3-yloxy)-2-oxo-1,2-dihydroquinolin-6-yl)amino)pyrimidin-2-yl)piperidin-4-yl)methyl)piperazin-1-yl)-2-(2,6-dioxopiperidin-3-yl)isoindoline-1,3-dione] reads above 100 nM.

The same test, now with this note: read-out: IC50.
`CNC(=O)COc1cc2cc(Nc3nc(N4CCC(O[C@H]5C[C@@H](COc6ccc7c(c6)C(=O)N(C6CCC(=O)NC6=O)C7=O)N(C)C5)CC4)ncc3Cl)ccc2n(C(C)C)c1=O` (stereo partly drawn) [compound 456, 2-[(6-{[5-chloro-2-(4-{[(3S,5S)-5-({[2-(2,6-dioxopiperidin-3-yl)-1,3-dioxo-2,3-dihydro-1H-isoindol-5-yl]oxy}methyl)-1-methylpyrrolidin-3-yl]oxy}piperidin-1-yl)pyrimidin-4-yl]amino}-2-oxo-1-(propan-2-yl)-1,2-dihydroquinolin-3-yl)oxy]-N-methylacetamide]: the 50% inhibitory concentration (IC50) was at least 0.1 µM.
On the same count and under the same terms, then `CNC(=O)COc1cc2cc(Nc3nc(N4CCC(O[C@H]5C[C@@H](Oc6ccc7c(c6)C(=O)N(C6CCC(=O)NC6=O)C7=O)CN(C)C5)CC4)ncc3Cl)ccc2n(C(C)C)c1=O` (stereo partly drawn) [compound 457, 2-[(6-{[5-chloro-2-(4-{[(3S,5R)-5-{[2-(2,6-dioxopiperidin-3-yl)-1,3-dioxo-2,3-dihydro-1H-isoindol-5-yl]oxy}-1-methylpiperidin-3-yl]oxy}piperidin-1-yl)pyrimidin-4-yl]amino}-2-oxo-1-(propan-2-yl)-1,2-dihydroquinolin-3-yl)oxy]-N-methylacetamide], with at least 0.1 µM; and `CNC(=O)COc1cc2cc(Nc3nc(N4CCC(O[C@H]5C[C@H](Oc6ccc7c(c6)C(=O)N(C6CCC(=O)NC6=O)C7=O)CN(C)C5)CC4)ncc3Cl)ccc2n(C(C)C)c1=O` (stereo partly drawn) [compound 459, 2-[(6-{[5-chloro-2-(4-{[(3S,5S)-5-{[2-(2,6-dioxopiperidin-3-yl)-1,3-dioxo-2,3-dihydro-1H-isoindol-5-yl]oxy}-1-methylpiperidin-3-yl]oxy}piperidin-1-yl)pyrimidin-4-yl]amino}-2-oxo-1-(propan-2-yl)-1,2-dihydroquinolin-3-yl)oxy]-N-methylacetamide], with at least 0.1 µM; and `CNC(=O)COc1cc2cc(Nc3nc(N4CCC(O[C@@H]5C[C@H](COc6ccc7c(c6)C(=O)N(C6CCC(=O)NC6=O)C7=O)N(C)C5)CC4)ncc3Cl)ccc2n(C(C)C)c1=O` (stereo partly drawn) [compound 460, 2-[(6-{[5-chloro-2-(4-{[(3R,5R)-5-({[2-(2,6-dioxopiperidin-3-yl)-1,3-dioxo-2,3-dihydro-1H-isoindol-5-yl]oxy}methyl)-1-methylpyrrolidin-3-yl]oxy}piperidin-1-yl)pyrimidin-4-yl]amino}-2-oxo-1-(propan-2-yl)-1,2-dihydroquinolin-3-yl)oxy]-N-methylacetamide], with at least 0.1 µM.
Same read-out and setting: the result for `CNC(=O)COc1cc2cc(Nc3nc(N4CCC(O[C@@H]5C[C@@H](Oc6ccc7c(c6)C(=O)N(C6CCC(=O)NC6=O)C7=O)CN(C)C5)CC4)ncc3Cl)ccc2n(C(C)C)c1=O` (stereo partly drawn) [compound 464, 2-[(6-{[5-chloro-2-(4-{[(3R,5R)-5-{[2-(2,6-dioxopiperidin-3-yl)-1,3-dioxo-2,3-dihydro-1H-isoindol-5-yl]oxy}-1-methylpiperidin-3-yl]oxy}piperidin-1-yl)pyrimidin-4-yl]amino}-2-oxo-1-(propan-2-yl)-1,2-dihydroquinolin-3-yl)oxy]-N-methylacetamide] reads at least 0.1 µM; that for `CNC(=O)COc1cc2cc(Nc3nc(N4CCC(O[C@@H]5C[C@@H](COc6cccc7c6C(=O)N(C6CCC(=O)NC6=O)C7=O)N(C)C5)CC4)ncc3Cl)ccc2n(C(C)C)c1=O` (stereo partly drawn) [compound 478, 2-[(6-{[5-chloro-2-(4-{[(3R,5S)-5-({[2-(2,6-dioxopiperidin-3-yl)-1,3-dioxo-2,3-dihydro-1H-isoindol-4-yl]oxy}methyl)-1-methylpyrrolidin-3-yl]oxy}piperidin-1-yl)pyrimidin-4-yl]amino}-2-oxo-1-(propan-2-yl)-1,2-dihydroquinolin-3-yl)oxy]-N-methylacetamide], at least 0.1 µM.
